These results are taken from patent publication US12214036B2, “Combination therapy comprising AXL/MER and PD-1/PD-L1 inhibitors” (Incyte Corporation, priority 2020, dated 2025).

In one experiment the test system is MC38 tumor. Put plainly: MC38 tumor model, combination with checkpoint blockade. The class given is in vivo, C57BL/6 mice. From the text:
(§1) MBT-2 cells were obtained from the Japanese Collection of Research Bioresources Cell Bank and were maintained in DMEM supplemented with 10% FBS. MC38 cells were obtained from the NCI. 4T1 cells were obtained from ATCC and maintained in RPMI media supplemented with 10% FBS. For MBT-2 experiments, 5×10^5 MBT-2 cells were inoculated subcutaneously into the right hind flank of 6- to 8-week-old C3H mice or athymic nude mice (Charles River Laboratories, Wilmington, Mass.). For MC38 studies, 12-week old female C57BL/6 mice were inoculated with brei of MC38 tumors (in-vivo passage 6) into the right hind flank. For 4T1 studies, 7.5×10^5 4 T1 cells were inoculated subcutaneously into the right hind flank of 6- to 8-week-old female BALB/c mice or athymic nude mice (Charles River Laboratories). Mice were randomized by tumor volume with n=10-12 per group. […] Mice were monitored for tumor growth and overt tolerability over the course of the experiment. […] Tumor volume was calculated using the formula (L×W^2)/2, where L and W refer to the length and width dimensions, respectively. Tumor growth inhibition (TGI) was calculated using the formula (1−(VT/VC))×100, where VT is the tumor volume of the treatment group on the last day of treatment, and VC is the tumor volume of the control group on the last day of treatment. […]

Experiment [1] has as its system BAF3 cells expressing MER. Put plainly: BAF3-MER cell proliferation assay (CellTiter-Glo). It is filed as cell-based. The following applies: Mus musculus, 48 hours, 2% FBS. From the text: (§2) To evaluate the cellular potency and selectivity within the TAM receptor family, mouse BAF3 cell lines with stable expression of AXL, MER, or TYRO3 were generated.
(§3) The cytoplasmic domain of AXL, MER, or TYRO3 fused with dimerization sequence and HA tag was cloned into a pMSCV (murine stem cell virus) vector with a puromycin-resistance marker to generate three constructs individually by electroporation into BAF3 cells. Single clones that were IL-3-independent and puromycin-resistant were selected and characterized. To evaluate effects on BAF3 cell proliferation, 1000 cells/well of BAF3, BAF3-AXL, BAF3 MER, or BAF3-TYRO3 cells were treated in the presence or absence of Compound 1 at various concentrations (10 concentration points with a three-fold dilution factor from the highest concentration of 10 μM) diluted in RPMI-1640 with 2% FBS for 48 hours in a 384-well plate. Cell viability was measured by ATP assay (CellTiter-Glo Assay, Promega, Madison, Wis.) according to the manufacturer's procedure. The data were converted to percent inhibition relative to DMSO control, and IC50 curves were fitted using GraphPad Prism software.

The subject of another experiment is parental BAF3 cells. Put plainly: Parental BAF3 cell proliferation assay (CellTiter-Glo). It is filed as cell-based. To be noted: Mus musculus, 48 hours, 2% FBS.
Description: as §2, §3

For another experiment, the system named is CTG-1302 tumors. Kind of experiment: Sarcoma PDX model CTG-1302 (leiomyosarcoma). The class given is in vivo, athymic nude mice. To be noted: CTG-1302, 10, 30, 100 mg/kg BID oral, FIG. 9B.
Description: as §1, with “Laboratories).” for “Laboratories). Mice were randomized by tumor volume with n=10-12 per group.”
(§4) The activity of Compound 1 in sarcoma PDX models was evaluated as described in Example H for PDX models. […] Three mice per group were analyzed. […]

The next experiment relates to CTG-1861 tumors. Put plainly: PDX model CTG-1861 (gastrointestinal stromal tumor). It is filed as in vivo. To be noted: athymic nude mice.
Description: as §1, with “Laboratories).” for “Laboratories). Mice were randomized by tumor volume with n=10-12 per group.”
as §4

Consider `CC(C)C(=O)N1CCC(c2cc(-c3ccc(NC(=O)c4cn(C(C)C)c(=O)n(-c5ccccn5)c4=O)cc3)c3c(N)ncnn23)CC1` [Compound 1, N-(4-(4-Amino-7-(1-isobutyrylpiperidin-4-yl)pyrrolo[1,2-f][1,2,4]triazin-5-yl)phenyl)-1-isopropyl-2,4-dioxo-3-(pyridin-2-yl)-1,2,3,4-tetrahydropyrimidine-5-carboxamide], for which the “antitumor activity (tumor volume)” value in the experiment on MC38 tumor (MC38 in C57BL/6 mice, Compound 1 oral BID, anti-PD-L1 15 mg/kg i.p. twice a week, FIG. 8A) is “single-agent antitumor activity”. Also, in the experiment on MC38 tumor (MC38 tumors, FIGS. 8B and 8C), the “proliferation of CD4+ and CD8+ tumor-infiltrating lymphocytes (Ki67+)” value was “induced proliferation”. Also, the 50% growth inhibitory concentration (GI50) in experiment [1] is 14 ± 4.9 nM. Further, in the experiment with parental BAF3 cells, the IC50 is > 4000 nM. The antitumor response entry with CTG-1302 tumors was “robust antitumor response”. Further, in the experiment with CTG-1861 tumors, the “TGI (%)” value is given as 74%.
